Measurements taken from the supplement of paper PMC10307832.

Assays:
Experiment in all cases: relative viability (nuclei count vs DMSO), 5 days (fraction); higher = more cells survive
[1] = compound: C1=CC=C2C(=C1)C=CC(=C2SSC3=C(C=CC4=CC=CC=C43)O)O [IPA-3] + COc1cc2c(Oc3ccc(NC(=O)C4(C(=O)Nc5ccc(F)cc5)CC4)cc3F)ccnc2cc1OCCCN1CCOCC1 [Foretinib] (partner 0.25 µM)
How it was run: (§1)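 Dosing by pin tool came one day after lung cancer cell lines were seeded in 1536-well plates, using either one drug or a fixed anchor-drug dose plus five library-drug doses (not always all listed) in √10 steps. After 5 days, nuclei were counted on 4× images. Relative viability is treated-well nuclei count divided by vehicle-well nuclei count, and values are medians of duplicate plates.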

[2] = compound: C1=CC=C2C(=C1)C=CC(=C2SSC3=C(C=CC4=CC=CC=C43)O)O [IPA-3] + Cc1cc(Nc2cc(N3CCN(C)CC3)nc(Sc3ccc(NC(=O)C4CC4)cc3)n2)n[nH]1 [Tozasertib] (partner 0.1 µM)
How it was run: as §1

[3] = compound: Cn1c(Nc2ccc(C(F)(F)F)cc2)nc2cc(Oc3ccnc(-c4ncc(C(F)(F)F)[nH]4)c3)ccc21 [RAF265] + COc1cc2c(Oc3ccc(NC(=O)C4(C(=O)Nc5ccc(F)cc5)CC4)cc3F)ccnc2cc1OCCCN1CCOCC1 [Foretinib] (partner 0.25 µM)
How it was run: as §1

[4] = compound: C1=CC=C2C(=C1)C=CC(=C2SSC3=C(C=CC4=CC=CC=C43)O)O [IPA-3] + CC(=O)Nc1cccc(-n2c(=O)n(C3CC3)c(=O)c3c(Nc4ccc(I)cc4F)n(C)c(=O)c(C)c32)c1 [Trametinib] (partner 0.02 µM)
How it was run: as §1

Row | Cell Line | relative viability ([1]; first compound 0.2 µM) | relative viability ([1]; first compound 0.6325 µM) | relative viability ([1]; first compound 2 µM) | relative viability ([1]; first compound 6.325 µM) | relative viability ([1]; first compound 20 µM) | relative viability ([2]; first compound 0.2 µM) | relative viability ([2]; first compound 0.6325 µM) | relative viability ([2]; first compound 2 µM) | relative viability ([2]; first compound 6.325 µM) | relative viability ([2]; first compound 20 µM) | relative viability ([3]; first compound 0.01 µM) | relative viability ([3]; first compound 0.03162 µM) | relative viability ([3]; first compound 0.1 µM) | relative viability ([3]; first compound 0.3162 µM) | relative viability ([3]; first compound 1 µM) | relative viability ([4]; first compound 0.2 µM) | relative viability ([4]; first compound 0.6325 µM) | relative viability ([4]; first compound 2 µM) | relative viability ([4]; first compound 6.325 µM) | relative viability ([4]; first compound 20 µM)
1 | NCI-H1395 | 1.07 | 0.901 | 0.98 | 0.934 | 1.02 | 0.732 | 0.761 | 0.72 | 0.733 | 0.8 | 0.915 | 1.02 | 0.972 | 0.972 | 0.697 | 1.02 | 1.03 | 1.04 | 1.05 | 1.13
2 | NCI-H647 | 1.36 | 1.26 | 1.08 | 1.03 | 1.12 | 0.463 | 0.298 | 0.266 | 0.415 | 0.161 | 1.14 | 0.867 | 0.957 | 0.979 | 0.659 | 0.69 | 0.445 | 0.558 | 0.284 | 0.0977
3 | NCI-H650 | 1.11 | 0.97 | 1.11 | 1.03 | 1.2 | 0.823 | 0.694 | 0.786 | 0.703 | 0.831 | 1.1 | 0.965 | 0.974 | 0.814 | 0.484 | 1.11 | 0.973 | 0.888 | 1.1 | 1.32
4 | EKVX | 0.775 | 0.668 | 0.895 | 0.893 | 1.21 | 0.463 | 0.42 | 0.447 | 0.375 | 0.422 | 1.21 | 0.676 | 0.963 | 0.419 | 0.715 | 0.403 | 0.314 | 0.359 | 0.38 | 0.376
5 | NCI-H460 | 1.12 | 0.924 | 0.851 | 0.929 | 0.931 | 0.464 | 0.462 | 0.727 | 0.516 | 0.453 | 1.06 | 0.982 | 1.06 | 1.04 | 1.1 | 0.133 | 0.145 | 0.141 | 0.129 | 0.104
6 | LCLC-97TM1 | 0.958 | 0.928 | 0.915 | 0.861 | 0.958 | 0.255 | 0.178 | 0.259 | 0.216 | 0.189 | 0.993 | 0.811 | 0.967 | 0.811 | 0.448 | 0.221 | 0.206 | 0.205 | 0.218 | 0.223
7 | COR-L23 | 1.12 | 0.964 | 1.04 | 0.928 | 0.906 | 0.197 | 0.201 | 0.344 | 0.25 | 0.165 | 1.01 | 0.962 | 0.864 | 0.893 | 0.644 | 0.743 | 0.557 | 0.654 | 0.579 | 0.21
8 | NCI-H1355 | 1 | 0.953 | 1.02 | 0.946 | 1.08 | 0.596 | 0.566 | 0.599 | 0.586 | 0.656 | 0.65 | 0.923 | 0.823 | 0.464 | 0.38 | 0.462 | 0.476 | 0.428 | 0.423 | 0.443
9 | NCI-H1666 | 0.988 | 0.926 | 0.976 | 1.01 | 1.16 | 0.611 | 0.604 | 0.594 | 0.6 | 0.703 | 1.11 | 0.936 | 0.985 | 1.01 | 0.81 | 0.902 | 0.855 | 0.886 | 0.924 | 0.884
10 | EPLC-272H | 0.901 | 0.639 | 0.655 | 0.795 | 0.857 | 0.441 | 0.338 | 0.332 | 0.311 | 0.506 | 0.721 | 0.39 | 0.506 | 0.208 | 0.135 | 0.327 | 0.337 | 0.273 | 0.301 | 0.319
11 | ChaGo-K-1 | 0.933 | 0.875 | 0.996 | 0.93 | 1.14 | 0.228 | 0.236 | 0.231 | 0.221 | 0.251 | 0.969 | 0.827 | 0.825 | 0.819 | 0.646 | 0.979 | 0.886 | 0.917 | 0.884 | 1
12 | NCI-H1651 | 0.981 | 0.717 | 0.967 | 0.952 | 1.04 | 0.727 | 0.613 | 0.883 | 0.708 | 0.691 | 0.86 | 0.808 | 0.75 | 0.844 | 0.584 | 0.945 | 0.798 | 0.883 | 0.904 | 0.971
13 | SW 1573 | 1.06 | 0.83 | 0.806 | 0.808 | 0.893 | 0.16 | 0.23 | 0.222 | 0.155 | 0.136 | 1 | 1.01 | 0.887 | 0.792 | 0.732 | 0.67 | 0.546 | 0.46 | 0.532 | 0.271
14 | PC-3 [JPC-3] | 1.06 | 0.975 | 1.04 | 0.965 | 1 | 0.995 | 0.847 | 0.869 | 0.833 | 0.878 | 1.04 | 1.07 | 1.12 |  | 0.595 | 0.785 | 0.713 | 0.744 | 0.705 | 0.699
15 | LOU-NH91 | 0.955 | 0.861 | 0.942 | 0.916 | 1.07 | 0.649 | 0.669 | 0.649 | 0.656 | 0.742 | 1.04 | 0.845 | 0.954 | 0.582 | 0.71 | 0.79 | 0.757 | 0.805 | 0.779 | 0.852
16 | PC-14 | 1.07 | 0.938 | 0.941 | 0.874 | 1.07 | 0.693 | 0.612 | 0.647 | 0.539 | 0.649 | 0.969 | 1.01 | 0.928 |  | 0.817 | 1.23 | 0.654 | 0.699 | 0.634 | 0.918
17 | NCI-H2087 | 1.26 | 1.12 | 1.05 | 1.03 | 1.18 | 0.273 | 0.349 | 0.274 | 0.221 | 0.253 | 0.967 | 1.1 | 0.938 | 0.797 | 0.663 | 0.235 | 0.267 | 0.178 | 0.227 | 0.271
18 | SW 900 | 1.04 | 0.792 | 0.975 | 1.14 | 1.08 | 0.56 | 0.53 | 0.496 | 0.566 | 0.56 | 1.01 | 0.835 | 0.748 | 0.769 | 0.546 | 0.939 | 0.497 | 0.752 | 0.675 | 0.938
19 | LU99A | 0.877 | 0.734 | 0.687 | 0.763 | 0.921 | 0.325 | 0.255 | 0.213 | 0.267 | 0.239 | 0.837 | 0.745 | 0.624 | 0.522 | 0.332 | 0.608 | 0.551 | 0.502 | 0.553 | 0.514
20 | BEN | 0.733 | 0.598 | 0.729 | 0.889 | 0.614 | 0.528 | 0.582 | 0.48 | 0.5 | 0.588 | 0.665 | 0.776 | 0.701 | 0.664 | 0.568 | 1.05 | 1.04 | 1.15 | 1.13 | 1.16
21 | SK-LU-1 | 1.01 | 0.78 | 0.908 | 0.828 | 0.911 | 0.328 | 0.36 | 0.338 | 0.339 | 0.302 | 0.889 | 0.615 | 0.491 | 0.411 | 0.318 | 0.585 | 0.474 | 0.506 | 0.467 | 0.571
22 | NCI-H1975 | 1.01 | 0.887 | 1.03 | 0.873 | 0.935 | 0.833 | 0.685 | 0.855 | 0.906 | 0.755 | 0.88 | 0.74 | 0.639 | 0.383 | 0.333 | 0.328 | 0.325 | 0.331 | 0.424 | 0.323
23 | NCI-H2342 | 1.11 | 1.04 | 1.15 | 1.19 | 1.3 | 0.526 | 0.505 | 0.6 | 0.57 | 0.596 | 1.11 | 1.06 | 1.12 | 0.992 | 0.968 | 0.74 | 0.734 | 0.955 | 0.872 | 0.937
24 | RERF-LC-KJ | 1.02 | 0.913 | 0.868 | 0.847 | 1.04 | 0.513 | 0.452 | 0.471 | 0.456 | 0.403 | 0.867 | 0.85 | 0.891 | 0.759 | 0.774 | 1.01 | 0.877 | 0.84 | 0.872 | 0.891
25 | NCI-H441 | 1.14 | 1.2 | 0.79 | 0.837 | 1 | 0.738 | 0.596 | 0.739 | 0.739 | 0.524 | 1.28 | 1.04 | 0.966 | 0.884 | 0.623 | 0.535 | 0.437 | 0.348 | 0.473 | 0.449
26 | LCLC-103H | 0.908 | 0.862 | 0.756 | 0.725 | 0.775 | 0.582 | 0.528 | 0.577 | 0.443 | 0.539 | 0.802 | 0.587 | 0.645 | 0.504 | 0.39 | 0.693 | 0.686 | 0.718 | 0.687 | 0.675
27 | HCC-78 | 0.555 | 0.611 | 0.606 | 0.668 | 0.655 | 0.508 | 0.429 | 0.448 | 0.402 | 0.398 | 0.512 | 0.587 | 0.583 | 0.617 | 0.526 | 0.832 | 0.714 | 0.806 | 0.849 | 0.918
28 | NCI-H1915 | 1.13 | 1.06 | 1.08 | 1.11 | 1.11 | 0.466 | 0.425 | 0.446 | 0.428 | 0.513 | 1.09 | 1.05 | 0.869 | 0.348 | 0.306 | 0.301 | 0.271 | 0.286 | 0.295 | 0.318
